According to PubChem BioAssay AID206 (DTP/NCI, 2004):
Where “and” joins values, the source holds several entries; their conditions need not be identical. Equal entries are not always repeated. Inconclusive results are not listed.

Tested on: nude mice, HT29 intrarenal xenograft, tumor weight T/C
Assay: NCI In Vivo Anticancer Drug Screen. Data for tumor model HT29;CX-1 Human Adenocarcinoma (MER+) (intrarenal inoculation) in NU/NU Swiss (nude) mice
Conditions: endpoint: mean tumor weight change, higher = larger tumour
Method: The antitumor activity of compounds was measured in mice bearing transplantable tumors. Survival or tumor size were measured and the results are expressed as the measurement made in the treated group (T) divided by the measurement made in the vehicle treated control group (C). The tumor model used in this assay is HT29;CX-1 Human Adenocarcinoma (MER+) (intrarenal inoculation) in NU/NU Swiss (nude) mice

[1] = dose: 200.0 mg/kg/injection, schedule: Q01DX010 (sc), vehicle: saline

CCC(=O)Sc1ccccc1C(=O)Nc1ccc(Cl)cc1
T/C (dose: 300.0 mg/kg/injection, schedule: Q04DX004 (sc), vehicle: saline with Tween-80): 122 % of control
T/C (dose: 600.0 mg/kg/injection, schedule: Q04DX004 (sc), vehicle: saline with Tween-80): 93 % of control
T/C (dose: 1200.0 mg/kg/injection, schedule: Q04DX004 (sc), vehicle: saline with Tween-80): 103 % of control
T/C (dose: 2400.0 mg/kg/injection, schedule: Q04DX004 (sc), vehicle: saline with Tween-80): 91 % of control

CO[C@H]1C[C@](C)(O)Cc2cc3c(c(O)c21)C(=O)c1c(O)cc2c(c1C3=O)O[C@@H]1O[C@@]2(C)[C@H](O)[C@@H](N(C)C)[C@@H]1O
T/C (dose: 50.0 mg/kg/injection, schedule: Q04DX004 (sc), vehicle: other): 99 % of control

NC(=O)/C=C/C(=O)c1c(Cl)cccc1Cl
T/C (dose: 36.0 mg/kg/injection, schedule: Q04DX004 (sc), vehicle: saline with Tween-80): 52 % of control

ClCCCN1CCN(CCCCl)CC1
T/C (dose: 62.5 mg/kg/injection, schedule: Q04DX004 (sc), vehicle: distilled water + alcohol): 52 % of control
T/C (dose: 125.0 mg/kg/injection, schedule: Q04DX004 (sc), vehicle: distilled water + alcohol): 17 % of control

c1ccc2sc(SSN3CC4CCC(CC4)C3)nc2c1
T/C (dose: 50.0 mg/kg/injection, schedule: Q01DX010 (sc), vehicle: saline with Tween-80): 120 % of control
T/C (dose: 400.0 mg/kg/injection, schedule: Q01DX010 (sc), vehicle: saline with Tween-80): 96 % of control

O=C(O)Cc1cccc2c(=O)cc(-c3ccccc3)oc12
T/C (dose: 112.0 mg/kg/injection, schedule: Q04DX003 (ip), vehicle: sodium bicarbonate): 42 % of control
T/C (dose: 150.0 mg/kg/injection, schedule: Q04DX003 (ip), vehicle: sodium bicarbonate): 90 % of control
T/C (dose: 200.0 mg/kg/injection, schedule: Q01DX001 (ip), vehicle: sodium bicarbonate): 105 % of control
T/C (dose: 200.0 mg/kg/injection, schedule: Q04DX003 (ip), vehicle: sodium bicarbonate): 46 % of control
T/C (dose: 267.0 mg/kg/injection, schedule: Q01DX001 (ip), vehicle: sodium bicarbonate): 52 % of control

Cc1ccc(N)c(N)c1
T/C (dose: 200.0 mg/kg/injection, schedule: Q04DX004 (sc), vehicle: saline with Tween-80): 151 % of control
T/C (dose: 400.0 mg/kg/injection, schedule: Q04DX004 (sc), vehicle: saline with Tween-80): 85 % of control
T/C (dose: 800.0 mg/kg/injection, schedule: Q04DX004 (sc), vehicle: saline with Tween-80): 124 % of control

OC1(CSc2ccccc2)CCCCC1
T/C (dose: 100.0 mg/kg/injection, schedule: Q04DX004 (sc), vehicle: saline with Tween-80): 113 % of control

CCCC(=O)O
T/C (dose: 100.0 mg/kg/injection, schedule: Q01DX010 (sc), vehicle: saline): 69 % of control
T/C [1]: 65 % of control
T/C (dose: 400.0 mg/kg/injection, schedule: Q01DX010 (sc), vehicle: saline): 110 % of control
T/C (dose: 800.0 mg/kg/injection, schedule: Q01DX010 (sc), vehicle: saline): 79 % of control

CN(C(=S)S(=O)(=O)C12CC3CC(CC(C3)C1)C2)c1ccccc1
T/C (dose: 12.5 mg/kg/injection, schedule: Q04DX004 (sc), vehicle: Klucel (hydroxypropylcellulose) (HPC)): 99 % of control
T/C (dose: 25.0 mg/kg/injection, schedule: Q04DX004 (sc), vehicle: Klucel (hydroxypropylcellulose) (HPC)): 113 % of control
T/C (dose: 400.0 mg/kg/injection, schedule: Q04DX004 (sc), vehicle: Klucel (hydroxypropylcellulose) (HPC)): 107 % of control and 123 % of control
T/C (dose: 800.0 mg/kg/injection, schedule: Q04DX004 (sc), vehicle: Klucel (hydroxypropylcellulose) (HPC)): 197 % of control

Nc1n[n+](-c2ccc(Cl)cc2)no1
T/C (dose: 25.0 mg/kg/injection, schedule: Q04DX004 (sc), vehicle: water): 95 % of control
T/C (dose: 50.0 mg/kg/injection, schedule: Q04DX004 (sc), vehicle: water): 121 % of control
T/C (dose: 100.0 mg/kg/injection, schedule: Q04DX004 (sc), vehicle: water): 102 % of control

O=c1ssc(=Nc2ccccc2)n1-c1ccccc1
T/C (dose: 300.0 mg/kg/injection, schedule: Q04DX004 (sc), vehicle: Klucel (hydroxypropylcellulose) (HPC)): 88 % of control
T/C (dose: 600.0 mg/kg/injection, schedule: Q04DX004 (sc), vehicle: Klucel (hydroxypropylcellulose) (HPC)): 75 % of control
T/C (dose: 1200.0 mg/kg/injection, schedule: Q04DX004 (sc), vehicle: Klucel (hydroxypropylcellulose) (HPC)): 98 % of control
T/C (dose: 2400.0 mg/kg/injection, schedule: Q04DX004 (sc), vehicle: Klucel (hydroxypropylcellulose) (HPC)): 189 % of control

CCCCC1CCCCCCc2[nH]c(/C=C3\N=C(c4ccc[nH]4)C=C3OC)cc21 (stereo not given)
T/C (dose: 16.0 mg/kg/injection, schedule: Q04DX004 (sc), vehicle: saline with Tween-80): 200 % of control

NC1(C(=O)O)CCCC1
T/C (dose: 12.5 mg/kg/injection, schedule: Q01DX010 (sc), vehicle: saline): 49 % of control
T/C [1]: -20 % of control

O=CC(=O)c1ccc(O)cc1
T/C (dose: 150.0 mg/kg/injection, schedule: Q04DX004 (sc), vehicle: saline): 73 % of control
T/C (dose: 300.0 mg/kg/injection, schedule: Q04DX004 (sc), vehicle: saline): 67 % of control
T/C (dose: 600.0 mg/kg/injection, schedule: Q04DX004 (sc), vehicle: saline): 56 % of control
